Laboratory results as given in the kinase profiling compilation of Christmann-Franck et al. (2016).

Experiments:
Assay in all cases: radiometric filter-binding kinase assay, Kinase HotSpot
Details in all cases: compound 0.5 µM; ATP 10 µM
[1] = target: YES1 (human) (UniProt P07947)
[2] = target: FER (human) (UniProt P16591)
[3] = target: ULK3 (human) (UniProt Q6PHR2)
[4] = target: TBK1 (human) (UniProt Q9UHD2)
[5] = target: MET (human) (UniProt P08581)
[6] = target: STK4 (human) (UniProt Q13043)
STK4 (human), sequence (Q13043 whole entry, looked up): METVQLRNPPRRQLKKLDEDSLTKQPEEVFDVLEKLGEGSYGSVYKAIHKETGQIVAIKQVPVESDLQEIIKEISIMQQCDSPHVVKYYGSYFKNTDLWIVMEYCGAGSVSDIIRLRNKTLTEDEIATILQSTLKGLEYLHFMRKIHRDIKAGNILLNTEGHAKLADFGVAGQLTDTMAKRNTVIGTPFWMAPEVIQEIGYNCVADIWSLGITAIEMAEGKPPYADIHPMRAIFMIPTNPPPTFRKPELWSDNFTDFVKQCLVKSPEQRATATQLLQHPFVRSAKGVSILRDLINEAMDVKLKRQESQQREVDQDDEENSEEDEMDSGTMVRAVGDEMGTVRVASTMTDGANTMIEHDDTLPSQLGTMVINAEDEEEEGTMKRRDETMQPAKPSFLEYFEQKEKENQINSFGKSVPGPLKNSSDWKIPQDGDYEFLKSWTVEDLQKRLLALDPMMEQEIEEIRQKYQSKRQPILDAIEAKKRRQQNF

[7] = target: STK38 (human) (UniProt Q15208)
[8] = target: PDPK1 (human) (UniProt O15530)
[9] = target: STK33 (human) (UniProt Q9BYT3)
[10] = target: PRKCZ (human) (UniProt Q05513)
PRKCZ (human), sequence (Q05513 whole entry, looked up): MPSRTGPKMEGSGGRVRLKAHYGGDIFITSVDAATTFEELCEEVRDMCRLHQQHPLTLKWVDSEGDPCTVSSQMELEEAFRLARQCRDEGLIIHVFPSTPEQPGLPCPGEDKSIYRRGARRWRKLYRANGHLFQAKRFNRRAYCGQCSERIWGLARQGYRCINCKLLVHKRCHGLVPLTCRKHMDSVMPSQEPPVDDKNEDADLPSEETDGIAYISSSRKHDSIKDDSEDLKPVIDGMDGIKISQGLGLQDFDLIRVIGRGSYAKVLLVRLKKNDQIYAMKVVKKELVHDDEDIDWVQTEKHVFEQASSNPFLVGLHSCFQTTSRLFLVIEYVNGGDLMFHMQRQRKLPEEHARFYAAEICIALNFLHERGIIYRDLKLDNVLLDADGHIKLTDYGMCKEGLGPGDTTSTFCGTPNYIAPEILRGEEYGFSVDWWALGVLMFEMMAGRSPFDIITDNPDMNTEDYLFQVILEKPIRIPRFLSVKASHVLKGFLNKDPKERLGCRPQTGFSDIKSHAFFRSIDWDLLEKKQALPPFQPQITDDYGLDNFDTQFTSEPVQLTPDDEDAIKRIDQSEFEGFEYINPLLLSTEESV

[11] = target: NEK11 (human) (UniProt Q8NG66)
NEK11 (human), sequence (Q8NG66 whole entry, looked up): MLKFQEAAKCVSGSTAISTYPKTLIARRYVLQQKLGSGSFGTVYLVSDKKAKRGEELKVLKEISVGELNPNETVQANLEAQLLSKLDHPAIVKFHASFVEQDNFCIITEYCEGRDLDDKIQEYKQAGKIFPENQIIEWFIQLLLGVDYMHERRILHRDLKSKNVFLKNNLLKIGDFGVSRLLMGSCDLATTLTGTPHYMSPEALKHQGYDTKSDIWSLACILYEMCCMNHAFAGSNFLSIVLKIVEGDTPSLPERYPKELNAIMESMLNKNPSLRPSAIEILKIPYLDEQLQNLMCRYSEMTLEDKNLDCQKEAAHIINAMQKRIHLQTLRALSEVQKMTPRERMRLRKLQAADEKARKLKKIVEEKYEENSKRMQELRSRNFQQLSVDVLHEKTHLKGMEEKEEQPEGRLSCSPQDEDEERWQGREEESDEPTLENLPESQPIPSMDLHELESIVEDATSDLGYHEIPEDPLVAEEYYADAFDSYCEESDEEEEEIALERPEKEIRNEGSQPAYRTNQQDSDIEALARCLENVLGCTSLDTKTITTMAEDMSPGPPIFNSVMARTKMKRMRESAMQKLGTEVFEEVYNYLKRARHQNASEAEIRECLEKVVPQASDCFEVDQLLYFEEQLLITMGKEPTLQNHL

[12] = target: SIK2 (human) (UniProt Q9H0K1)
[13] = target: LRRK2 (human) (UniProt Q5S007)
[14] = target: AKT2 (human) (UniProt P31751)
[15] = target: ROCK1 (human) (UniProt Q13464)
[16] = target: MAPKAPK5 (human) (UniProt Q8IW41)
[17] = target: MAP4K5 (human) (UniProt Q9Y4K4)
[18] = target: BRAF (human) (UniProt P15056)
BRAF (human), sequence (P15056 whole entry, looked up): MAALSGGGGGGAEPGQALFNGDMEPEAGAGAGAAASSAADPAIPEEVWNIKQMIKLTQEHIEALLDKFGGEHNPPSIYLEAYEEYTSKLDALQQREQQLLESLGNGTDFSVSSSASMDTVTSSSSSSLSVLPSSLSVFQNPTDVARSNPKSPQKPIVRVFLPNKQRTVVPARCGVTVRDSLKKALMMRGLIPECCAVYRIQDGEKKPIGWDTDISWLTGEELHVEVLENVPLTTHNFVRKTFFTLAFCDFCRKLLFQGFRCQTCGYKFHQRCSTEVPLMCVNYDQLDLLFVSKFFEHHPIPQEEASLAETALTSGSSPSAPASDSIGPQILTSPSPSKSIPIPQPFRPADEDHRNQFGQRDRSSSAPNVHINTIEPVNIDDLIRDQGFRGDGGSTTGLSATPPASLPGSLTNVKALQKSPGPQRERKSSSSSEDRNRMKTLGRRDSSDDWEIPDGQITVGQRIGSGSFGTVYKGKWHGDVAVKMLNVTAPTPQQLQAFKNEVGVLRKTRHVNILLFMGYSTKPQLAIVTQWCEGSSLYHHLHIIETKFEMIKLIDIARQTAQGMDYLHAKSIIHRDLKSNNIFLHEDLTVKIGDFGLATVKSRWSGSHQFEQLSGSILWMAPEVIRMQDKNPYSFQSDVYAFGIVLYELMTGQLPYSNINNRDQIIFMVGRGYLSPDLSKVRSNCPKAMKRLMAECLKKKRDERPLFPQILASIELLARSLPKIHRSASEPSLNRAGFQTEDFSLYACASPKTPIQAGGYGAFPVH

[19] = target: CDK6 CCND1 (human) (UniProt Q00534+P24385)
[20] = target: SRPK1 (human) (UniProt Q96SB4)
[21] = target: TLK2 (human) (UniProt Q86UE8)
[22] = target: MYO3B (human) (UniProt Q8WXR4)
[23] = target: MARK3 (human) (UniProt P27448)
[24] = target: PAK7 (human) (UniProt Q9P286)
PAK7 (human), sequence (Q9P286 whole entry, looked up): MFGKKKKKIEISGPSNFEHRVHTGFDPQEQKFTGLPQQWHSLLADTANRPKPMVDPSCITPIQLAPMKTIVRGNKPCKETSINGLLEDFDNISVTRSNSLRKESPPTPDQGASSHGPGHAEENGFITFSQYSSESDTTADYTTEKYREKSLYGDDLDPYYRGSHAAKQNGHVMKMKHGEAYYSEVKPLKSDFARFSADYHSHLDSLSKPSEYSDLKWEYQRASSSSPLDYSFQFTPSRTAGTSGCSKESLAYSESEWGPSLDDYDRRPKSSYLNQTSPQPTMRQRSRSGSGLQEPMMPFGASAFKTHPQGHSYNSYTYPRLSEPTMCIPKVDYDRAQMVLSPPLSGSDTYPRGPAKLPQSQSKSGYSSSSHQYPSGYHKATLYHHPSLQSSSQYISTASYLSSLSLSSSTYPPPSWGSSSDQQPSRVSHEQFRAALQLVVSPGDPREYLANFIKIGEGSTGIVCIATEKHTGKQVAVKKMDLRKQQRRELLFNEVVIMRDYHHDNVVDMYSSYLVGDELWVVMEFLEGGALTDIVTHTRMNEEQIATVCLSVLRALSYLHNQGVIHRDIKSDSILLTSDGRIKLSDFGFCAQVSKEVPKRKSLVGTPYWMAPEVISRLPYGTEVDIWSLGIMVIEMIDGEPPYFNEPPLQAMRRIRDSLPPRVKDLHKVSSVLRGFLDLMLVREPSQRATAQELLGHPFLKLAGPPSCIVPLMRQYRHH

[25] = target: CSNK1A1 (human) (UniProt P48729)
[26] = target: MST1R (human) (UniProt Q04912)
[27] = target: PHKG1 (human) (UniProt Q16816)
[28] = target: PAK6 (human) (UniProt Q9NQU5)
[29] = target: STK10 (human) (UniProt O94804)
[30] = target: PRKACG (human) (UniProt P22612)
[31] = target: CDK2 CCNE1 (human) (UniProt P24941+P24864)
[32] = target: ULK1 (human) (UniProt O75385)
[33] = target: MAP3K2 (human) (UniProt Q9Y2U5)
[34] = target: EPHA6 (human) (UniProt Q9UF33)
[35] = target: MAPK3 (human) (UniProt P27361)
[36] = target: CLK2 (human) (UniProt P49760)
[37] = target: LCK (human) (UniProt P06239)
[38] = target: AXL (human) (UniProt P30530)
[39] = target: IKBKE (human) (UniProt Q14164)
[40] = target: RET (human) (UniProt P07949)
[41] = target: TGFBR2 (human) (UniProt P37173)
[42] = target: EGFR (human) (UniProt P00533)

YES1 (human), sequence (P07947 whole entry, looked up): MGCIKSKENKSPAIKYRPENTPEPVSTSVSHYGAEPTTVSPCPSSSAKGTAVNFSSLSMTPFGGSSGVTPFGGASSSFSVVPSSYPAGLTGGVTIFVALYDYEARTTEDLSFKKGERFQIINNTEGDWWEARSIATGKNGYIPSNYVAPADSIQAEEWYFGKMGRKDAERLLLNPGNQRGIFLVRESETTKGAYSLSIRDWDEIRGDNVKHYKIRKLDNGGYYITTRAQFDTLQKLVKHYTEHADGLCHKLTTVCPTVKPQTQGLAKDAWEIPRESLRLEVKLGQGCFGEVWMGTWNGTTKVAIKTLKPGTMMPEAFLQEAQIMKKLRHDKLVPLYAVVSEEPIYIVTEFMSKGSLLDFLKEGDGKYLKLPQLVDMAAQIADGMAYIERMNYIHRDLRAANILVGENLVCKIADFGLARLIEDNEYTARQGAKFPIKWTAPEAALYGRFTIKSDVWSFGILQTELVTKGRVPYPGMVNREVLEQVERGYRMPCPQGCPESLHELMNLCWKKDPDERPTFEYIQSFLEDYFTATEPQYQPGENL
ULK3 (human), sequence (Q6PHR2 whole entry, looked up): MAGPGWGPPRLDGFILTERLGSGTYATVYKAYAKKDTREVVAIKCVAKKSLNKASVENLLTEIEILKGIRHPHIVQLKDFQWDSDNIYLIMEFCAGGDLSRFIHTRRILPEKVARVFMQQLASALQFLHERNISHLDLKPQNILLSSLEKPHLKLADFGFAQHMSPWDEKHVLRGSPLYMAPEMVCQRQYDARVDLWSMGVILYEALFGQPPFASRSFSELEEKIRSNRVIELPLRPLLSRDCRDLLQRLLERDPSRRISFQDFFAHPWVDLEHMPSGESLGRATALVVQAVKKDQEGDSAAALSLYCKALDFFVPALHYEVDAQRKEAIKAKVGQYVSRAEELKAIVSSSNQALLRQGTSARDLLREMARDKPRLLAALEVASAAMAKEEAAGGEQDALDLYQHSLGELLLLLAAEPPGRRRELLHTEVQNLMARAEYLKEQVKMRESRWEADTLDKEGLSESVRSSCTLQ
TBK1 (human), sequence (Q9UHD2 whole entry, looked up): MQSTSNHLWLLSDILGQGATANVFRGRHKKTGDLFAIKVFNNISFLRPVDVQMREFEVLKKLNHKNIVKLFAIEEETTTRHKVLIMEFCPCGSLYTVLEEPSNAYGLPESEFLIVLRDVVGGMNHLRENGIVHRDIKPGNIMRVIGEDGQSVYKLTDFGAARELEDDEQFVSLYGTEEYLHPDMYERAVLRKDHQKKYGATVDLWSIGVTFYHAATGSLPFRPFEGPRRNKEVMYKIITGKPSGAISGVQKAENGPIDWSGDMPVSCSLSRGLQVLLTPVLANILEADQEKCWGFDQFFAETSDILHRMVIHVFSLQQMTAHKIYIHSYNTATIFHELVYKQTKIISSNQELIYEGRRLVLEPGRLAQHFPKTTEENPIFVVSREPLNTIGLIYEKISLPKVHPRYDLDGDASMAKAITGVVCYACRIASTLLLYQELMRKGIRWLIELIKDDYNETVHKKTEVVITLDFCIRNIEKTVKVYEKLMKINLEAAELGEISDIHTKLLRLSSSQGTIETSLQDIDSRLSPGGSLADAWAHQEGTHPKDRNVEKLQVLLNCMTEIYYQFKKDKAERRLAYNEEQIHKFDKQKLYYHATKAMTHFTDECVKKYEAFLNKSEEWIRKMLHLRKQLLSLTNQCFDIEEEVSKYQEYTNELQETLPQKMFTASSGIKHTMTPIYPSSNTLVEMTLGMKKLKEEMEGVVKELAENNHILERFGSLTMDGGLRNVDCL

CN[C@@H]1C[C@H]2O[C@@](C)([C@@H]1OC)n1c3ccccc3c3c4c(c5c6ccccc6n2c5c31)C(=O)NC4
residual activity [1]: 4.48% | residual activity [2]: 0.816% | residual activity [3]: 1.82% | residual activity [4]: -0.455% | residual activity [5]: 32.7% | residual activity [6]: -0.197% | residual activity [7]: 10% | residual activity [8]: 4.41% | residual activity [9]: 10.7%

N#Cc1c(NC(=O)c2cccc3ccccc23)sc2c1CCCC2
residual activity [1]: 104% | residual activity [2]: 99.7% | residual activity [10]: 102% | residual activity [11]: 105% | residual activity [12]: 101% | residual activity [13]: 100% | residual activity [14]: 105% | residual activity [15]: 96.3% | residual activity [16]: 96.6% | residual activity [17]: 93.8% | residual activity [18]: 95.2% | residual activity [19]: 94% | residual activity [20]: 102% | residual activity [21]: 98.9% | residual activity [4]: 94% | residual activity [22]: 107% | residual activity [23]: 97.1% | residual activity [5]: 109% | residual activity [24]: 103% | residual activity [25]: 91.1% | residual activity [26]: 92.5% | residual activity [27]: 93.8% | residual activity [28]: 101% | residual activity [6]: 93.1% | residual activity [29]: 97.7% | residual activity [30]: 111% | residual activity [31]: 89.1% | residual activity [7]: 97.7% | residual activity [32]: 99.8% | residual activity [33]: 84% | residual activity [34]: 93.4% | residual activity [35]: 97.1% | residual activity [8]: 92.1% | residual activity [36]: 101% | residual activity [9]: 93% | residual activity [37]: 102% | residual activity [38]: 106% | residual activity [39]: 94.3% | residual activity [40]: 105% | residual activity [41]: 104%

COc1cc2c(N3CCN(C(=O)Nc4ccc(OC(C)C)cc4)CC3)ncnc2cc1OCCCN1CCCCC1
residual activity [1]: 86.6% | residual activity [2]: 104% | residual activity [10]: 103% | residual activity [11]: 92.5% | residual activity [12]: 98.9% | residual activity [13]: 123% | residual activity [14]: 97.9% | residual activity [15]: 102% | residual activity [16]: 91.9% | residual activity [17]: 87.6% | residual activity [19]: 94.6% | residual activity [20]: 98.2% | residual activity [3]: 101% | residual activity [21]: 96.2% | residual activity [4]: 97.2% | residual activity [22]: 88.5% | residual activity [23]: 103% | residual activity [5]: 92.5% | residual activity [24]: 87.5% | residual activity [25]: 101% | residual activity [26]: 99.2% | residual activity [27]: 92.6% | residual activity [28]: 101% | residual activity [6]: 96.2% | residual activity [29]: 95% | residual activity [30]: 108% | residual activity [31]: 96.7% | residual activity [7]: 99.1% | residual activity [32]: 92.1% | residual activity [33]: 103% | residual activity [34]: 103% | residual activity [35]: 106% | residual activity [8]: 96.8% | residual activity [36]: 80.7% | residual activity [9]: 91.1% | residual activity [37]: 87.1% | residual activity [38]: 99% | residual activity [39]: 96.2% | residual activity [40]: 91.5% | residual activity [41]: 102%

O=c1cc(N2CCOCC2)oc2c(-c3ccccc3)cccc12
residual activity [1]: 101% | residual activity [2]: 99.9% | residual activity [11]: 102% | residual activity [12]: 96.8% | residual activity [13]: 96.9% | residual activity [14]: 94% | residual activity [15]: 104% | residual activity [16]: 94.1% | residual activity [17]: 92.2% | residual activity [18]: 95.9% | residual activity [19]: 97.9% | residual activity [20]: 104% | residual activity [3]: 103% | residual activity [21]: 83.2% | residual activity [4]: 94.1% | residual activity [22]: 104% | residual activity [23]: 95.4% | residual activity [5]: 127% | residual activity [24]: 104% | residual activity [26]: 109% | residual activity [27]: 90.1% | residual activity [28]: 115% | residual activity [6]: 87.8% | residual activity [29]: 97.1% | residual activity [31]: 93% | residual activity [7]: 103% | residual activity [32]: 102% | residual activity [33]: 101% | residual activity [34]: 87% | residual activity [35]: 104% | residual activity [8]: 104% | residual activity [36]: 100% | residual activity [9]: 92.1% | residual activity [38]: 110% | residual activity [39]: 100% | residual activity [40]: 99.2% | residual activity [41]: 142%

Nc1ncnc2c1cnn2-c1ccccc1
residual activity [1]: 93.7% | residual activity [2]: 99% | residual activity [10]: 96.3% | residual activity [11]: 107% | residual activity [12]: 99.8% | residual activity [13]: 99.3% | residual activity [14]: 102% | residual activity [15]: 93.8% | residual activity [16]: 87.1% | residual activity [42]: 73% | residual activity [17]: 87.2% | residual activity [18]: 93.6% | residual activity [19]: 94.7% | residual activity [20]: 98.1% | residual activity [3]: 98.9% | residual activity [21]: 110% | residual activity [22]: 93.4% | residual activity [23]: 86.1% | residual activity [5]: 97.1% | residual activity [24]: 97% | residual activity [25]: 79.8% | residual activity [26]: 100% | residual activity [27]: 94.2% | residual activity [28]: 100% | residual activity [6]: 96.8% | residual activity [29]: 95.4% | residual activity [31]: 93.9% | residual activity [7]: 98.6% | residual activity [32]: 99.5% | residual activity [33]: 89.5% | residual activity [34]: 83.2% | residual activity [35]: 90.1% | residual activity [8]: 104% | residual activity [36]: 91.4% | residual activity [9]: 96.1% | residual activity [37]: 95.5% | residual activity [38]: 110% | residual activity [39]: 100% | residual activity [40]: 98.2% | residual activity [41]: 105%
